Laboratory results: patent US20220280644A1, “"TRPswitch" - A STEP FUNCTION CHEMO-OPTOGENETIC LIGAND” (UNIVERSITY OF UTAH RESEARCH FOUNDATION, priority 2019, published 2022)

How the values were obtained:
endogenous human TRPA1 = biological target: T1, endogenous human TRPA1 (Homo sapiens, UniProt O75762); assay: Whole cell current in untransfected CCD-18Co cells; format: cell-based; settings: without expression of zTrpa1b, violet and green light
T1 construct: human colonic fibroblast cells, CCD-18Co, which express human TRPA1 endogenously; endogenous in cells; host or cells: CCD-18Co (ATCC), untransfected
Experimental: Immortalized HEK293T cells or human colonic fibroblast cells (CCD-18Co; ATCC) were used. HEK293T cells were plated on […] cover slips and transiently transfected with 10 μg of Trpa1b plasmid (pCMV-zTrpa1b-FLAG) (SEQ ID NO:3) and 5 μg of mNeonGreen cDNA (Allele Biotechnology), then grown in a 6 cm plate for 24-48 h. CCD-18Co were cultured in Eagle's minimal essential medium with 10% FBS, 1× penicillin and streptomycin. CCD-18Co cells were plated on 12 mm cover slips and transiently transfected with 5 μg of zTrpa1b plasmid (pCMV-zTrpa1b-FLAG) together with 5 μg of mNeonGreen cDNA (Allele Biotechnology), then grown in a […] plate for 48-72 h. After this time, the cover slips were transferred to a recording chamber containing an extracellular solution composed of 145 mM sodium gluconate, 4 mM KCl, 3 mM MgCl2, 10 mM D-glucose, 10 mM HEPES; pH 7.4 adjusted with NaOH. The internal solution contained 122 mM cesium methane sulfonate, 1.8 mM MgCl2, 9 mM EGTA, 14 mM creatine phosphate (sodium salt), 4 mM Mg-ATP, 0.3 mM Na-GTP, 10 mM HEPES, pH 7.2 adjusted with CsOH. […] Whole cell currents were measured on an Axopatch 200B amplifier (Molecular De-vices) under the control of pClamp software. […] Basal Trpa1b whole cell currents were measured with a ramp protocol (˜100 to +100 mV, at a holding potential of 0 mV). […] The p values were calculated using a two-tailed, paired Student's t-test.

[1] = Z→E thermal isomerisation kinetics; format: physicochemical
Experimental: In order to determine the Z→E thermal isomerisation kinetics in DMSO-d6 a ˜20 mM solution of the relevant compound was irradiated using a Luzchem LZC-4V photoreactor fitted with 12×8 W LZC-420 lamps (420 nm peak emission) until no further change was observable by ^1H NMR. For 30% water:DMSO samples, a 15 μM solution of the relevant compound was irradiated in a quartz cuvette using 365 nm LEDs (3×800 mW Nichia NCSU276A) until no further change was observed by UV-Vis spectroscopy. Compounds (˜25 μM solutions in DMSO) were treated analogously. In the case of compounds studied by NMR, the change in Z-isomer percentage was followed as a function of time through integration of the relevant peaks. […]
For data collected via ^1H NMR, the natural log of the Z isomer concentration was plotted against time to yield a straight line implying first order kinetics. The gradient of this line was used to determine the rate constant for Z→E conversion from which the thermal half-life could be calculated:
For data collected via UV-Vis Spectroscopy, absorbance data at a fixed wavelength was fitted using the following, first order equation: […]
where k represents the rate constant; A∞, A0 and At are the absorbances of the pure E-state, Z-rich state, and time t, respectively. […]

[2] = Photostationary state (PSS) determination; format: physicochemical
Text: […] In the latter case, the pure Z isomer spectrum was estimated using methods described in previous publications.

[3] = tested on: zebrafish Trpa1a (zTrpa1a); assay: Rescue experiment, Trpa1b−/− embryos expressing zTrpa1a in Rohon-beard neurons; format: in vivo; settings: 20 μM, motion within 5 s after 1 s WL3
Experimental: (§1) For Trpa1b ohnolog and paralog rescue experiments, Trpa1b^−/− embryos were injected with ngn1:zTrpa1b-2A-mCherry (partial plasmid sequence in SEQ ID NO:5), ngn1:zTrpa1a-2A-mCherry, ngn1:hTRPA1-2A-EGFP or ngn1:mTRPA1-2A-mCherry at the 1-cell stage for mosaic Rohon-beard neuron expression. Embryos were screened at 2 dpf for fluorescent expression in Rohon-beard neurons, incubated with 20 μM TRPswitch-B for 1 hr and decapitated posterior to the eyes right before experiments. NA 0.25 5× objective and 1 s WL3 light illumination was used.
(§2) To test the potential cross activity of TRPswitch-B on the zebrafish ohnolog Trpa1a and on mammalian orthologs, zebrafish Trpa1a, mouse TRPA1 or human TRPA1 were transiently re-expressed in the Rohon-beard neurons of mutant Trpa1b^−/− zebrafish and performed light-induced motion response experiments in the presence of TRPswitch-B. Rescue experiments were performed in Trpa1b^−/− zebrafish with transient mosaic re-expression of zebrafish Trpa1b (zTrpa1b), zebrafish Trpa1a (zTrpa1a), mouse TRPA1 (mTRPA1) or human TRPA1 (hTRAP1) in Rohon-beard neurons. Embryos were pre-treated with 20 μM TRPswitch-B and decapitated right before light stimulation to eliminate the light response mediated by the retina (Table 5). […]

mouse TRPA1 (mTRPA1) = biological target: T2, mouse TRPA1 (mTRPA1) (Mus musculus, UniProt Q8BLA8); assay: Rescue experiment, Trpa1b−/− embryos expressing mTRPA1 in Rohon-beard neurons; format: in vivo, zebrafish; settings: 20 μM, motion within 5 s after 1 s WL3
T2 construct: 2A peptide (remnant stays on the channel) (C); mCherry (separated at the 2A site) (C, cleaved yes); expressed in transfected cells; host or cells: Rohon-Beard neurons of Trpa1b−/− zebrafish embryos, in vivo
Experimental: as §1, §2

human TRPA1 = biological target: T3, human TRPA1 (Homo sapiens, UniProt O75762); assay: Rescue experiment, Trpa1b−/− embryos expressing hTRPA1 in Rohon-beard neurons; format: in vivo, zebrafish; settings: 20 μM, motion within 5 s after 1 s WL3
T3 construct: 2A peptide (remnant stays on the channel) (C); EGFP (separated at the 2A site) (C, cleaved yes); expressed in transfected cells; host or cells: Rohon-Beard neurons of Trpa1b−/− zebrafish embryos, in vivo
Experimental: as §1, §2

Trpa1b−/− embryos = assay: Rescue experiment, Trpa1b−/− embryos without re-expression; format: in vivo, zebrafish; settings: 20 μM, motion within 5 s after 1 s WL3
Experimental: as §1, §2

[4] = UV-Vis spectroscopy in 30% water:DMSO, extrapolated pure Z spectrum, listed as TRPswitch-B

T3 sequence (O75762 whole entry): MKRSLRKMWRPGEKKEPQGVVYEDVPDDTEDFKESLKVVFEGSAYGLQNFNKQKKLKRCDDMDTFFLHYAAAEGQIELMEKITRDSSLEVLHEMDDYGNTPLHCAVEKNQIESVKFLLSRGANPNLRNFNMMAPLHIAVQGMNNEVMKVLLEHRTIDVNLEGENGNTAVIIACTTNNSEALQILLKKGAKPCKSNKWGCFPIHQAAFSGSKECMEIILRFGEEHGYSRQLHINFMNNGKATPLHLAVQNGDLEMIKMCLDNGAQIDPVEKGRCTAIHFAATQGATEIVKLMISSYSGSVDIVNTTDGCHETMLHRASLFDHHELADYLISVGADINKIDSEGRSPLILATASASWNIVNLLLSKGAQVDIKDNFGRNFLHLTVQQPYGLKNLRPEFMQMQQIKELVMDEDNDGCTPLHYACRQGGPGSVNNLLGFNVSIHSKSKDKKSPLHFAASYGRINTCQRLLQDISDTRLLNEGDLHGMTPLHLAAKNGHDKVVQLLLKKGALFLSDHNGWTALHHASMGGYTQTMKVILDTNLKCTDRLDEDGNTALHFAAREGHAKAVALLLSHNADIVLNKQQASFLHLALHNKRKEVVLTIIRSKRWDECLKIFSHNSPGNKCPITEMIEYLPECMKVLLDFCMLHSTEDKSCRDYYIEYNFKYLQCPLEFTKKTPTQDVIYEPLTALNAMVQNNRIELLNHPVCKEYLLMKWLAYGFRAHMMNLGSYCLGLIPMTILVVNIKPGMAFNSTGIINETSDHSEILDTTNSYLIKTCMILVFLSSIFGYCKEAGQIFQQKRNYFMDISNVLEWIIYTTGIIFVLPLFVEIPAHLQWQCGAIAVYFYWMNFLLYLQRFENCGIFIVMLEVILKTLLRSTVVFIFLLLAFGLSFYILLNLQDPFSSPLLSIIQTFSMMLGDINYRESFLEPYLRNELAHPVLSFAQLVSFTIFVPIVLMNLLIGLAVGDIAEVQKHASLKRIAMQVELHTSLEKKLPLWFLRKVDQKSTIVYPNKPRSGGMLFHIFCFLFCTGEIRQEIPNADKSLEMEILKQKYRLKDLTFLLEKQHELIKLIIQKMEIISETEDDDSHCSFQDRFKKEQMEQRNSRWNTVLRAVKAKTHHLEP
T1 sequence (O75762 whole entry): as above
T2 sequence (Q8BLA8 whole entry): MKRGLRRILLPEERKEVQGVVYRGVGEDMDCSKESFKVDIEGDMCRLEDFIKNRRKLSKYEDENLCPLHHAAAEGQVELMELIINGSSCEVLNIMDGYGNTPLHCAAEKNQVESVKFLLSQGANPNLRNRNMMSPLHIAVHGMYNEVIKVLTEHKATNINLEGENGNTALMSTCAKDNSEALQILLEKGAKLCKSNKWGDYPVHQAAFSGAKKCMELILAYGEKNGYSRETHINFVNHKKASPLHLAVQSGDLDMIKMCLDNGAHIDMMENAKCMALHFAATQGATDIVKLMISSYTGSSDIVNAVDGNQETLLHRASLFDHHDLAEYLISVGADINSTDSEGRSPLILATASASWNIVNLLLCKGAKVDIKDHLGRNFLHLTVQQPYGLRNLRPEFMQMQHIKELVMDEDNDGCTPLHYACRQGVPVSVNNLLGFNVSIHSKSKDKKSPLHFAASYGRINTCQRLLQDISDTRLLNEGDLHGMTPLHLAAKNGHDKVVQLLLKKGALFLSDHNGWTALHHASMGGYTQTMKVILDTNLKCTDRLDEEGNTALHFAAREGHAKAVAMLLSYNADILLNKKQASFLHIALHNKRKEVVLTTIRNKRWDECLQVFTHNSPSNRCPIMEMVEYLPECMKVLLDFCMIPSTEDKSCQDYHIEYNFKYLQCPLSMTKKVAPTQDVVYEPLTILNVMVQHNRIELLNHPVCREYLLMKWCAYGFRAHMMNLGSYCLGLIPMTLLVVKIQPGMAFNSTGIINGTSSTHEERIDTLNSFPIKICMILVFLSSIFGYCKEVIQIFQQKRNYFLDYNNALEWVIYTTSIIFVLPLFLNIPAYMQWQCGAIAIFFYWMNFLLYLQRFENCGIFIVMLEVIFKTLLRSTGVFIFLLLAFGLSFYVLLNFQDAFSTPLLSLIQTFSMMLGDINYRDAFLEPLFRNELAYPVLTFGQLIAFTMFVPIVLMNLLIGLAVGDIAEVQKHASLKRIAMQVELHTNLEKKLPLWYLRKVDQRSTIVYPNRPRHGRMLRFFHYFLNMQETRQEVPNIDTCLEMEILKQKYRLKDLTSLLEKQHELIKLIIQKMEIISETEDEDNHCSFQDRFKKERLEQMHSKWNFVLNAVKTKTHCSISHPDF

With `Cc1nn(C)c(C)c1/N=N/c1ccc(NC(=O)c2cccs2)cc1NC(=O)c1cccs1` [Compound 9, (E)-N,N′-(4-((1,3,5-trimethyl-1H-pyrazol-4-yl)diazenyl)-1,3-phenylene)bis(thiophene-2-carboxamide)] the “light induced photocurrent / cross reaction with endogenous human TRPA1” value (endogenous human TRPA1) was “does not cross react”, the “thermal half-lives” value [1] was “long thermal half-lives” and the “365 nm PSS (E-Z)” value ([2]; 1H NMR in DMSO-d6) was 92% Z. For the same molecule, the “420 nm PSS (E-Z)” value ([2]; 1H NMR in DMSO-d6) was 55% Z, the “495 nm PSS (Z-E)” value ([2]; 1H NMR in DMSO-d6) was 86% E and the “Estimated 365 nm PSS (E-Z)” value [2, 4] was 92% Z. For the same molecule, the “Estimated 495 nm PSS (Z-E)” value [2, 4] was 100% E, the “% response” value [3] was 0% and the “% response” value (mouse TRPA1 (mTRPA1)) was 0%. For the same molecule, the “% response” value (human TRPA1) was 0% and the “% response” value (Trpa1b−/− embryos) was 0%.
